Holding throughout (format): functional, cell-based
The subject of one experiment is MCF7. Briefly: Cytotoxicity against human MCF7 cells after 48 hrs by sulforhodamine B assay. Conditions: MCF7, 48 h. A general note: In SRB staining, fixed cells bind dye roughly in proportion to their protein.
Another experiment has as its system HCT-15. Put plainly: Cytotoxicity against human HCT15 cells after 48 hrs by sulforhodamine B assay. Conditions: HCT-15, 48 h.
For a further experiment, the system named is HeLa. Put plainly: Cytotoxicity against human HeLa cells after 48 hrs by sulforhodamine B assay.

Molecules are shown by their SMILES. pIC50: −log10 of the molar value. Where only a bound is given, the exact number is not on record here.

Usually pIC50 stands for −log10 of the IC50, conventionally taken in molar units. For `CCCC[C@@H](/C=C\[C@@H]1OC(=O)C[C@@H](OC)[C@@H]1OC(C)=O)OC(C)=O`, the pIC50 with MCF7, in the experiment with HCT-15 and with HeLa was below 5.00 each time.

On to `CCCC[C@H](/C=C\[C@@H]1OC(=O)C=C[C@@H]1O)OC(C)=O`, for which the negative logarithm of the IC50 (pIC50) in the experiment on MCF7 is 5.89; in the experiment with HCT-15, 5.02; in the experiment with HeLa, 5.85.

Take `CCCC[C@H](O)/C=C\[C@@H]1OC(=O)C=C[C@@H]1O`: the pIC50 in the experiment with MCF7 is 5.23; in the experiment on HCT-15, 5.13; in the experiment on HeLa, 5.21.

As for `CCCC[C@H](O)/C=C\[C@@H]1OC(=O)C[C@@H](OC)[C@@H]1O`, the pIC50 in the experiment with MCF7, in the experiment on HCT-15 and in the experiment with HeLa was below 5.00 throughout.

For `CCCC[C@H](/C=C\[C@@H]1OC(=O)C=C[C@@H]1OC(C)=O)OC(C)=O`, the pIC50 in the experiment on MCF7 is 6.30; in the experiment on HCT-15, 6.10; in the experiment with HeLa it was 6.15.

With `CCCC[C@H](OC(C)=O)[C@@H](O)[C@H](O)[C@@H]1OC(=O)C=C[C@@H]1OC(C)=O`, the pIC50 in the experiment with MCF7 is 5.01; in the experiment with HCT-15 it was 5.00; in the experiment on HeLa it was 5.16.

In the case of `CCCC[C@H](OC(C)=O)[C@@H](OC(C)=O)[C@H](OC(C)=O)[C@@H]1OC(=O)C=C[C@@H]1OC(C)=O`, the pIC50 is 5.11 in the experiment with MCF7, below 5.00 with HCT-15 and 5.57 with HeLa.

For the compound `CCCC[C@@H](/C=C\[C@@H]1OC(=O)C=C[C@@H]1OC(C)=O)OC(C)=O` [PECTINOLIDE A], the values for the pIC50 in the experiment with MCF7, with HCT-15 and in the experiment on HeLa were 5.49, 5.24 and 5.49, respectively.

For the compound `CCCC[C@H](O)/C=C\[C@@H]1OC(=O)C=C[C@@H]1OC(C)=O` [PECTINOLIDE B], the pIC50 is 5.03 in the experiment on MCF7, 5.28 with HCT-15 and 5.39 in the experiment with HeLa.

Consider `CCCC[C@@H](/C=C\[C@@H]1OC(=O)C=C[C@@H]1O)OC(C)=O` [PECTINOLIDE C], for which the figures for the pIC50 in the experiment on MCF7, with HCT-15 and in the experiment with HeLa were 6.00, 5.64 and 6.52, respectively.

In the case of `C/C=C/C[C@H](C)[C@@H](OC)[C@@H](C)[C@H](O)C[C@H]1OC(=O)C=C[C@H]1CC` [PIRONETIN], the pIC50 in the experiment on MCF7 was 7.82; in the experiment on HCT-15 it was above 7.82; in the experiment with HeLa, 7.04.

Take `CC[C@]1(O)C[C@@H]2CN(CCc3c([nH]c4ccccc34)[C@@](C(=O)OC)(c3cc4c(cc3OC)N(C)[C@H]3[C@@](O)(C(=O)OC)[C@H](OC(C)=O)[C@]5(CC)C=CCN6CC[C@]43[C@@H]65)C2)C1` [VINBLASTINE]: the figures for the pIC50 with MCF7, with HCT-15 and in the experiment with HeLa were 7.92, 7.96 and 7.96, respectively.

(Values after ChEMBL document CHEMBL4422625, “Structure Elucidation, Conformation, and Configuration of Cytotoxic 6-Heptyl-5,6-dihydro-2 H-pyran-2-ones from Hyptis Species and Their Molecular Docking to α-Tubulin” (J Nat Prod, 2019).)
